{"source": "paper doi:10.1101/2025.11.04.686469", "about": "“Discovery of Host-Directed Small Molecules with Broad Anti-Leishmanial Efficacy” (bioRxiv, 2025)", "key": {"[1]": {"test_system": "intracellular L. mexicana amastigotes", "assay": "microbe, parasite or virus in culture", "assay_type": "cell-based, Leishmania mexicana", "details": "bone marrow derived macrophages, Giemsa staining", "description": "Bone marrow derived macrophages (BMDMs) were isolated from BALB/c mice and cultured as previously described. Briefly, bone marrow was harvested from long bones of mice and the isolated cells were seeded at a concentration of 2 x 10^6 cells/mL in petri dishes with RPMI media supplemented with 10% FBS, 1% Penn-Strep and 10% L929 conditioned media (LCM). Completely differentiated BMDMs are obtained after 7 days of culture with media change every 2 days. Harvested cells were seeded onto 10 mm glass cover slips at 5 x 10^5 cells/ well of a 24 well plate in DMEM media (without LCM) and allowed to adhere overnight. BMDM cells are then infected overnight with LV82 L. donovani or L. mexicana (NR-51210) at a multiplicity of infection of 10. After infection, cells were washed three times with fresh media to remove extracellular promastigotes and treated with compounds for a 72-hour incubation. BMDM cells were then washed with phosphate buffered saline, fixed with ice-cold methanol, and stained with Giemsa (5% v/v in water). The cover slips with stained cells are mounted onto glass slides and imaged on EVOS XL (100X, Thermo Fisher Scientific). Leishmania amastigotes per 100 macrophages were determined in a blinded manner."}, "lysozyme": {"biological_target": "T1, lysozyme (Homo sapiens, UniProt P61626)", "T1 construct": "endogenous in cells; host or cells: THP-1 cells differentiated with PMA and infected with L. mexicana promastigotes; cell lysate", "T1 sequence (P61626 19-148)": "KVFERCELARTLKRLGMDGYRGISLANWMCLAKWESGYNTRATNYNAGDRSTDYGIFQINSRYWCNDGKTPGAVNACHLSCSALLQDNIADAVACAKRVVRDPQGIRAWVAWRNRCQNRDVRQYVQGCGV", "assay": "Affinity capture with 197-bead in Leishmania infected macrophage lysate", "assay_type": "binding", "details": "197-bead vs control bead", "description": "To generate cell lysate, ten million THP-1 cells were plated overnight in a 10cm dish, then differentiated with 150 nM phorbol 12-myristate 13-acetate (PMA) for 72 hours. The resulting macrophages were infected with L. mexicana promastigotes at a multiplicity of infection of 1:10 and incubated for 18 hours. After infection, cells were washed three times with PBS to remove extracellular promastigotes. Cells were then collected by scraping and pelleted with centrifugation. The cell pellet was resuspended in cell buffer (50mM Tris-HCl, 150mM NaCl, 2mM EDTA, 0.5% triton-x-100) and subjected to five freeze-thaw cycles. Samples were centrifuged 14,000g x 10 minutes to remove cellular debris. Protein concentration of supernatant was determined by BCA assay and cell lysate was stored at −80°C until further use.\nFunctionalized agarose beads were made as follows. NHS activated agarose beads were washed three times to remove acetone and resuspended in PBS to create a slurry. 494 (197 with ligation chemical handle) was prepared in 0.3 mL at 25mM in DMSO and 1.7 mL PBS was added to 1 mL of agarose slurry for a final volume of 3 mL at a concentration of 2.5mM (10% v/v DMSO). […]\n500 μg cell lysate was incubated with 200 μL slurry at a final volume of 1 mL for 1 hr. […] Peptides were extracted, acidified, desalted using C18 spin columns, and analyzed by LC-MS/MS using Thermo Easy nLC 1200-QExactive HF. […]"}, "[2]": {"test_system": "extracellular L. mexicana promastigotes", "assay": "Effect of compounds on promastigote viability (resazurin assay)", "assay_type": "cell-based, Leishmania mexicana", "description": "The effect of compounds on extracellular promastigotes was evaluated using a resazurin-based assay as described previously. In short, late log phase Leishmania promastigotes were seeded in a 96 well plate at 1 x 10^5 parasites per well and treated with drugs (0.5 – 200 μM) for 72 hours at 25°C. Ten microliters of resazurin (0.02% w/v) were added to the treated parasites to achieve a final concentration of 0.002% w/v and incubated for 24 hours. Viability of the promastigotes was assessed by fluorescence (excitation 544 nm, emission 590 nm, SpectraMax M2, Molecular Devices)."}, "[3]": {"test_system": "intracellular L. donovani amastigotes", "assay": "Luminescent-based evaluation of intracellular anti-leishmanial activity in THP-1 macrophages", "assay_type": "cell-based, Leishmania donovani", "details": "Leishmania donovani, THP-1; THP1 macrophages, luminescence assay, 72 hours of treatment; read-out: Intracellular L. donovani amastigotes Lum IC50", "summary_of_the_method": "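PMA-differentiated THP-1 macrophages (150 nM, 72 h) were infected 18 h with firefly luciferase-expressing L. donovani LV82 promastigotes, then washed. Infected cells were treated with compounds at 0.1-10 μM for 72 h. Surviving intracellular amastigotes were quantified by firefly luciferase luminescence after cell lysis and 10 min substrate incubation at room temperature.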"}}, "note": "pIC50: −log10 of the molar value.", "data": [{"molecule": "O=C(CNCc1cccc(F)c1)Nc1ccc(-n2cc(C(F)(F)F)nc2-c2ccc(-c3ccc(C(F)(F)F)cc3)cc2)cc1", "note": "[Compound 197]", "values": [{"measurement": "pIC50", "setting": "[1]; Leishmania mexicana, Macrophage", "result": "> 5.70"}, {"measurement": "pIC50", "setting": "[1]", "result": 5.77}, {"measurement": "affinity capture abundance of lysozyme, Log2 fold change", "setting": "lysozyme", "result": 6.57}, {"measurement": "effect on L. mexicana extracellular promastigote viability", "setting": "[2]", "result": "no effect"}, {"measurement": "MIC50", "setting": "[2]; Leishmania mexicana, 72-hour incubation", "result": "> 200", "unit": "µM"}, {"measurement": "pIC50", "setting": "[3]", "result": 5.62}]}]}
